According to patent publication US9434701B2, “Aminoquinoxaline derivatives for treatment of neurodegenerative diseases” (CENTRE NATIONAL DE LA RECHERCHE SCIENTIFIQUE (CNRS), priority 2011, dated 2016):
Like-named read-outs stand apart in the source and are kept apart here.

Tests used:
Type in all cases: cell-based
[1] = tested on: fetal dopaminergic neurons (TH+) in culture; assay: dopaminergic neuron spontaneous degeneration model, second protocol (Mourlevat et al.), TH+ neuron count after 10 days; details: Rattus norvegicus, 240 h, read-out: TH+ neurons in % of control ± Std. Err.
Experimental: This second protocol is described in the article by Mourlevat, P. P. Michel et al. Molecular Pharmacology 2003, 64:578-586 (“Prevention of Dopaminergic Neuronal Death by Cyclic AMP in Mixed Neuronal/Glial Mesencephalic Cultures Requires the Repression of Presumptive Astrocytes”). […] Compounds according to the invention were evaluated at 50 μM except compound 4bc which was assessed at 100 μM.

[2] = tested on: dopaminergic neurons (TH+) of rat embryo ventral midbrain culture; assay: dopaminergic neuron spontaneous degeneration model in culture, TH+ neuron count after 8 days (Schmidt et al. protocol); details: Rattus norvegicus, Neuron, 192 h; compound at 100 nM; 8 days of culture; read-out: TH+ neurons in % of control ± SEM
Experimental: (§1) Quinoxaline derivatives were tested on a dopaminergic neuron spontaneous degeneration model in culture according to the protocol described in the article by F. Schmidt et al. […] This model consists of culturing rat embryo ventral midbrain. This part of the brain in culture contains a proportion of dopaminergic neurons of 5% of the total neurons; the other neurons are mainly GABAergic. These cultures are also composed of glial cells, i.e., astrocytes, oligodendrocytes and microglia. These cultures are characterized by progressive neuron death.

[3] = tested on: dopaminergic neurons (TH+) of rat embryo ventral midbrain culture; assay: neuritogenic activity: neurite outgrowth per cell / differentiation of TH+ neurons; details: Rattus norvegicus, Neuron; compound at 100 nM; read-out: Diff in % of control ± SEM
Experimental: as §1, with “death. […] To assess the neuritogenic activity of compounds according to the invention, neurite outgrowth per cell was quantified using the Neurite Outgrowth software developed by Xplora Nova. At least 60 neurons per condition were photographed and studied.” for “death.”

[4] = compound at 50 μM, 10 days of culture, one experiment in triplicate

`C#CCNc1ccc2nc(C)c(-c3ccccc3)nc2c1` [Compound 9bc] showed an activity at 50 µM [1, 4] of 174 ± 15%.

`CCCCc1cnc2ccc(N)cc2n1` [Compound 4ad] was tested, and the activity at 0.1 µM [2] was 101% and the activity at 0.1 µM [3] was 118%.

With `C#CCNc1ccc2nc(C)c(-c3ccc(F)cc3)nc2c1` [Compound 9bm] the activity at 50 µM [1, 4] was 166 ± 15%.

With `CCCCCCc1nc2ccc(N)cc2nc1CCCC` [Compound 4ed] the activity at 0.1 µM [2] was 115% and the activity at 0.1 µM [3] was 104%.

Compound `COc1ccc(-c2nc3cc(N)ccc3nc2-c2ccccc2)cc1` [Compound 4ch] has an activity at 50 µM [1, 4] of 130 ± 10%.

`Cc1nc2ccc(N)c(Br)c2nc1-c1ccccc1` [Compound 7bc] showed an activity at 50 µM [1, 4] of 153 ± 12%.

For `Cc1nc2ccc(N)c(Cl)c2nc1-c1ccccc1` [Compound 8bc], the activity at 50 µM [1, 4] was 129 ± 8%.

In the case of `Nc1ccc2ncc(-c3ccccc3)nc2c1` [Compound 4ac], the activity at 50 µM [1] is reported as 189 ± 11%.

`CCCCc1nc2cc(N)ccc2nc1C` [Compound 4bd] showed an activity at 0.1 µM [2] of 121% and an activity at 0.1 µM [3] of 102%.
